Test results: patent US7659081B2, “Determination of AM-binding proteins and the association of adrenomedullin (AM) therewith” (The United States of America as represented by the …, priority 1999, dated 2010)
≈ marks a conversion by molar mass, not a printed value.

Experiments:
[1] = tested on: E. coli cells (ATCC 35218); assay type: cell-based
Method: FIG. 9 illustrates the effect of factor H on AM activity. […] Values represent mean and standard deviation of four independent determinations. […] Results are expressed in inhibition units (10 units correspond to 1 mm of diameter in the inhibition halo). MIC values were estimated by performing a linear regression and determining the x-intercepts. […] Values represent mean and standard deviation of the mean of eight determinations.
Antimicrobial activity was measured using E. coli cells (ATCC 35218, Gaithersburg, Md.) and a radial diffusion assay as previously described (R. I. Lehrer et al., 1991, J. Immunol. Methods 137:167-173). Briefly, bacteria were incorporated into a thin underlay gel that contained 1% agarose, 2 mM HEPES pH 7.2, and 0.3 mg/ml of trypticase soy broth powder. After polymerization of the gel, small wells (10 μl capacity) were carved in the agar. Test substances were added and allowed to diffuse for 3 hr at 37° C. […] The diameters of the inhibition halos were measured to the nearest 0.1 mm and, after subtracting the diameter of the well, were expressed on inhibition units (10 units=1 mm). […]
For statistical calculations, MIC values were analyzed by the Student's t test, cAMP values were analyzed with a one-way analysis of variance (ANOVA) and the Tukey's test, and P<0.05 was considered significant.

[2] = biological target: T1, AMBP-1 (factor H) (Homo sapiens, UniProt P08603); experiment: Ligand blot competition of labeled AM binding to plasma AMBP-1; details: 7 μM unlabeled peptide, preincubation 6 hr at 4° C.
T1 construct: Total proteins derived from human plasma (2 μl) were electrophoretically fractionated; from tissue; host or cells: human plasma
T1 sequence (P08603 19-1231): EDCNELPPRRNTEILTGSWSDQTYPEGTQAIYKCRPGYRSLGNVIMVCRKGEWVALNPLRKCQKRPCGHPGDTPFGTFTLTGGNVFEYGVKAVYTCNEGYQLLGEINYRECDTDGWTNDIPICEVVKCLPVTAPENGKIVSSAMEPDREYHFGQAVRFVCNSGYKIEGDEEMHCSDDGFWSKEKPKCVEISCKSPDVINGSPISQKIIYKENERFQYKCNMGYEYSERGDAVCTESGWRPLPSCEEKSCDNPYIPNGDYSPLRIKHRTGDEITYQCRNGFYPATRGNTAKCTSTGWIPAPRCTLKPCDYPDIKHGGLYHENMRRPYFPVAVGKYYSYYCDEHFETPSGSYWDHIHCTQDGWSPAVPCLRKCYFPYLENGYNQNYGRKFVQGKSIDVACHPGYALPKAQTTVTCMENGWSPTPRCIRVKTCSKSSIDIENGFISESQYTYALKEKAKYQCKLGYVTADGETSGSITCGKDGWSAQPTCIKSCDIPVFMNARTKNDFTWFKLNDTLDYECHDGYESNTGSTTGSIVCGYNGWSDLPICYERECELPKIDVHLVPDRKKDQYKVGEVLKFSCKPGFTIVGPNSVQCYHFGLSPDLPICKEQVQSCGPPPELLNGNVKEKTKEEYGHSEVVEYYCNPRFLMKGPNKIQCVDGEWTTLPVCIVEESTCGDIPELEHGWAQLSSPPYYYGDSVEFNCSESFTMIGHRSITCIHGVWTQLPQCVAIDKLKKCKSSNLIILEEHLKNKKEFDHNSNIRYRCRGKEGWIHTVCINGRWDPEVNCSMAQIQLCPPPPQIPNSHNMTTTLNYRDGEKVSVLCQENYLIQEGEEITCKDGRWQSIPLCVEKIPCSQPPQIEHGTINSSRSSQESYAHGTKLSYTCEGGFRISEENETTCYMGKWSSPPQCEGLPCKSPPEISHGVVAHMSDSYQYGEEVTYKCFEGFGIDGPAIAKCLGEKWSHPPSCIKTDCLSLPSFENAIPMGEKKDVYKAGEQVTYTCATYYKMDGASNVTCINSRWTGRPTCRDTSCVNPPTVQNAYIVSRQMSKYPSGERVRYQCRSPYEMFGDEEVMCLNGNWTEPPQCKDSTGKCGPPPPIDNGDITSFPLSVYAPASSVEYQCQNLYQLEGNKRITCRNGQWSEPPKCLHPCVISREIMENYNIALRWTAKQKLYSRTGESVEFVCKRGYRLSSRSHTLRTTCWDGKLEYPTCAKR
Method: Total proteins derived from human plasma (2 μl) were electrophoretically fractionated on 3-8% Tris-acetate gel (Novex, San Diego, Calif.) under non-reducing conditions. For the ligand blotting experiment, the proteins were transferred to a […] nitrocellulose membrane that was incubated for […] with 1% Nonidet P-40 (NP-40). Non-specific binding was further blocked with a 2 hr incubation in TBS containing 0.1% ATC. Incubations with 70 nM AM labeled with biotin, fluorescein, or DNP were carried out overnight at 4° C. in blocking buffer containing 0.1% TWEEN® 20 nonionic detergent. For biotin detection, the ligand blot was incubated with an avidin-biotin-peroxidase complex and the AEC reagent (Vector Laboratories, Inc., Burlingame, Calif.). For fluorescein and DNP, the ligand blots were incubated 1 hr at room temperature with rabbit anti-fluorescein or anti-DNP IgG, respectively, (1:1000 in incubation buffer; Molecular Probes, Inc.). Anti-rabbit antibody labeled with alkaline phosphatase (1:2000; Dako Corporation, Carpenteira, Calif.) was added for 0.5 hr, and the blot was developed using 4-nitro blue tetrazolium chloride/5-bromo-4-chloro-3-indolyl phosphate (NBT/BCIP) as the color-substrate solution (Roche Molecular Biochemicals, Indianapolis, Ind.).
Following this preincubation, labeled full-length AM was introduced and incubated overnight at 4° C.

[3] = tested on: pancreatic islets; experiment: Insulin secretion and cAMP in isolated pancreatic islets; assay type: cell-based, rat; details: islets with AM and/or factor H
Text: A representative experiment is shown. Values for each treatment represent the mean and standard deviation of three independent wells. […] All values were statistically different (p<0.05) from the negative controls (first bar).
Pancreatic islets were isolated from 12 rats as previously described (A. Martínez et al., 2000, Endocrinology 141:406-411). Briefly, the heart of each rat was perfused with Hank's balanced salt solution (Sigma) to remove blood from pancreatic vessels. A small canula was inserted into the common biliary duct while the coledoco was sealed. Twenty to twenty-five milliliters of 0.4 mg/ml collagenase XI (Sigma) in Hank's solution was pumped through the canula until the pancreas was fully inflated. The pancreas was removed and incubated at 37° C. for 20 min. Following this, 20 ml of ice-cold Hank's solution was added and the pancreas dissociated by vigorous vortexing. After several washes, the islets were collected and distributed into 24 well plates using a dissecting microscope, with approximately 70 islets per well.
Freshly isolated islets were incubated in RPMI-1640 (Life Technologies) containing 5.6 mM glucose for 45 min at 37° C. […] Insulin and cAMP were measured by radioimmunoassay with commercial kits (Amersham, Arlington Heights, Ill.), according to the manufacturer's directions. […]

[4] = intravenous injection; cited from earlier work

CC[C@H](C)[C@H](NC(=O)[C@H](CCC(N)=O)NC(=O)[C@H](Cc1c[nH]cn1)NC(=O)[C@H](C)NC(=O)[C@H](CC(C)C)NC(=O)[C@H](CCCCN)NC(=O)[C@H](CCC(N)=O)NC(=O)[C@@H](NC(=O)[C@@H](NC(=O)[C@@H]1CSSC[C@H](NC(=O)CNC(=O)[C@H](Cc2ccccc2)NC(=O)[C@H](CO)NC(=O)[C@H](CCCNC(=N)N)NC(=O)[C@H](CC(C)C)NC(=O)CNC(=O)[C@H](CCC(N)=O)NC(=O)[C@H](Cc2ccccc2)NC(=O)[C@H](CC(N)=O)NC(=O)[C@H](CC(N)=O)NC(=O)[C@H](CCSC)NC(=O)[C@H](CO)NC(=O)[C@H](CCC(N)=O)NC(=O)[C@H](CCCNC(=N)N)NC(=O)[C@@H](N)Cc2ccc(O)cc2)C(=O)N[C@@H](CCCNC(=N)N)C(=O)N[C@@H](Cc2ccccc2)C(=O)NCC(=O)N[C@@H]([C@@H](C)O)C(=O)N1)[C@@H](C)O)C(C)C)C(=O)N[C@@H](Cc1ccc(O)cc1)C(=O)N[C@@H](CCC(N)=O)C(=O)N[C@@H](Cc1ccccc1)C(=O)N[C@H](C(=O)N[C@@H](CC(=O)O)C(=O)N[C@@H](CCCCN)C(=O)N[C@@H](CC(=O)O)C(=O)N[C@@H](CCCCN)C(=O)N[C@@H](CC(=O)O)C(=O)N[C@@H](CC(N)=O)C(=O)N[C@H](C(=O)N[C@@H](C)C(=O)N1CCC[C@H]1C(=O)N[C@@H](CCCNC(=N)N)C(=O)N[C@@H](CO)C(=O)N[C@@H](CCCCN)C(=O)N[C@H](C(=O)N[C@@H](CO)C(=O)N1CCC[C@H]1C(=O)N[C@@H](CCC(N)=O)C(=O)NCC(=O)N[C@@H](Cc1ccc(O)cc1)C(N)=O)[C@@H](C)CC)C(C)C)[C@@H](C)O [AM, Adrenomedullin]
MIC value [1]: 18.4 ± 1.3 µg/mL (≈ 3.05 µM) | Competition for labeled AM/AMBP-1 complex on ligand blot [2]: able to dissociate the AM/AMBP-1 (AM/fH) complex | cAMP in islets [3]: concomitant elevations on cAMP | Insulin secretion ([3]; 20.6 mM glucose, 45 min): dose-dependent decreases in insulin secretion | Insulin and glucose in the bloodstream [4]: reduces the levels of insulin in the bloodstream with a concomitant increase in circulating glucose
